In patent US20060147520A1, “Treatment of pulmonary hypertension by inhaled iloprost with a microparticle formulation” (priority 2004, published 2006):
Read-outs that look alike come from different tables or passages of the source. Blank lines part the entries; values can stand above or below the compound they belong to.

Tests used:
[1] = test system: pulmonary hypertension; conditions: in vivo; cited from earlier work
[2] = test system: men with ED; conditions: cited from earlier work
[3] = test system: men with mild-to-severe ED; conditions: cited from earlier work
[4] = test system: PAH; conditions: oral; cited from earlier work
[5] = hydrophobicity scale of amino acids; assay type: physicochemical; conditions: scale on which glycine has the value 0.5
Source text: Hydrophobicity is generally defined with respect to the partition of an amino acid between a nonpolar solvent and water. Hydrophobic amino acids are those acids which show a preference for the nonpolar solvent. Relative hydrophobicity of amino acids can be expressed on a hydrophobicity scale on which glycine has the value 0.5. On such a scale, amino acids which have a preference for water have values below 0.5 and those that have a preference for nonpolar solvents have a value above 0.5. As used herein, the term hydrophobic amino acid refers to an amino acid that, on the hydrophobicity scale has a value greater or equal to 0.5, in other words, has a tendency to partition in the […] which is at least equal to that of glycine.
A mixture including 40 weight % of an amino acid and 60 weight % DPPC is formed in a 70/30 vol/vol ethanol-water co-solvent and spray-dried and the geometric aerodynamic diameters for the particles are determined. In addition, the hydrophobicity and tap density may also be determined. Tap density may be determined using the equation provided above.

[6] = glass stability of derivatized carbohydrates immersed in aqueous medium; assay type: physicochemical; conditions: THEX: saline medium at 37° C.; lactose derivative: water
[7] = dissolution of HDC glass discs in water; assay type: physicochemical
[8] = test system: patients with severe PAH; conditions: versus placebo; cited from earlier work
[9] = test system: erectile dysfunction (ED); conditions: in vivo; cited from earlier work
[10] = test system: patients with pulmonary hypertension; conditions: administered by aerosolization; cited from earlier work
[11] = test system: African Green monkey kidney-derived cell line Vero; assay: toxicity of HDC glasses in vitro; assay type: cell-based; conditions: week of culture
Experimental: A saturated solution of TOAC in deionized distilled water (0.42 g in 20 mls) is tested for toxicity in vitro using the African Green monkey kidney-derived cell line Vero, in either a 10-fold serial dilution or by adding the TOAC powder directly to the tissue culture medium.

[12] = test system: pulmonary hypertension; conditions: cited from earlier work

Structure (SMILES): Cc1cc2c(cc1CC(=O)c1sccc1S(=O)(=O)Nc1onc(C)c1Cl)OCO2 [sitaxsentan]
decrease in pulmonary vascular resistance [1]: 30% | six minute walk test [1]: improvement

Structure (SMILES): CN1CC(=O)N2[C@H](c3ccc4c(c3)OCO4)c3[nH]c4ccccc4c3C[C@@H]2C1=O [Cialis, tadalafil]
most commonly reported treatment-emergent adverse effects ([2]; 10 mg, increased to 20 mg, at least one year): headache and upset stomach | discontinuation rate for any individual adverse event ([2]; in vivo): less than 1% | patients who discontinued the study due to side effects ([2]; in vivo): Five | most commonly reported treatment-emergent adverse effects ([3]; greater than or equal to 5 percent): headache, back pain, and upset stomach | patients who discontinued the study because of adverse events ([3]; in vivo): 5%

Structure (SMILES): CC#CCC(C)[C@H](O)/C=C/[C@@H]1[C@H]2c3cccc(CCCC(=O)O)c3O[C@H]2C[C@H]1O (mixture of isomers) [Beraprost]
benefit in PAH [4]: benefit in a study in PAH at 3 and 6 months but not at 9 or 12 months

hydrophobicity [5]: 0.501
Structure (SMILES): N[C@@H](Cc1ccccc1)C(=O)O [Phenylalanine]

stability of the glassy state when immersed [6]: very stable in the glassy state
Structure (SMILES): CC(=O)OC[C@H]1O[C@@H](O[C@H]2[C@H](OC(C)=O)[C@@H](OC(C)=O)C(OC(=O)C(C)C)O[C@@H]2COC(C)=O)[C@H](OC(C)=O)[C@@H](OC(C)=O)[C@H]1OC(C)=O (some centres unmarked) [lactose isobutyrate heptaacetate]

solubility of the glass in water [7]: poorly soluble in water | loss of original weight ([7]; disc 20 mm diameter, 2.5 mm thick, flowing water, 10 days): about 33%
Structure (SMILES): CC(=O)OC[C@H]1O[C@@H](OC(C)=O)[C@H](OC(C)=O)[C@@H](OC(C)=O)[C@@H]1OC(C)=O [β-D-glucose pentaacetate]

Structure (SMILES): CC#CCC(C)[C@H](O)/C=C/[C@@H]1[C@H]2C/C(=C/CCCC(=O)O)C[C@H]2C[C@H]1O (some centres unmarked) [iloprost]
exercise capacity [8]: improved exercise capacity

Structure (SMILES): CCCc1nc(C)c2c(=O)[nH]c(-c3cc(S(=O)(=O)N4CCN(CC)CC4)ccc3OCC)nn12 [Levitra, vardenafil HC1]
most commonly reported side effects [9]: headache, flushing, and stuffy or runny nose

loss of original weight ([7]; disc in 1 l of water replaced daily, 7 days): 20%
Structure (SMILES): CC(=O)OC[C@H]1O[C@H](OC(C)=O)[C@H](OC(C)=O)[C@@H](OC(C)=O)[C@@H]1OC(C)=O [α-D-glucose pentaacetate]

Structure (SMILES): CCCCC[C@H](O)/C=C/[C@@H]1[C@H]2C/C(=C/CCCC(=O)O)O[C@H]2C[C@H]1O [prostacyclin]
duration of effects [10]: 15 min

Structure (SMILES): CC(=O)OCC1OC(OC2OC(COC(C)=O)C(OC(C)=O)C(OC(C)=O)C2OC(C)=O)C(OC(C)=O)C(OC(C)=O)C1OC(C)=O (centres unmarked) [TOAC, trehalose octaacetate]
toxicity in vitro ([11]; saturated solution in water (0.42 g in 20 mls), 10-fold serial dilution or powder added to the medium): No toxic effects | cell division [11]: normal

Structure (SMILES): COc1ccccc1Oc1c(NS(=O)(=O)c2ccc(C(C)(C)C)cc2)nc(-c2ncccn2)nc1OCCO [bosentan]
liver toxicity ([12]; higher dose): liver toxicity occurred | six minute walk test ([12]; whole group): improved

hydrophobicity [5]: 0.043
Structure (SMILES): N[C@@H](CCC(=O)O)C(=O)O [Glutamate]

hydrophobicity [5]: 0.943
Structure (SMILES): CC[C@H](C)[C@H](N)C(=O)O [Isoleucine]

stability of the glassy state when immersed [6]: stable in the glassy state
Structure (SMILES): CC(C)(C)CC(=O)O[C@@H]1[C@@H](OC(=O)CC(C)(C)C)[C@@H](O[C@H]2O[C@H](CO)[C@@H](OC(=O)CC(C)(C)C)[C@H](OC(=O)CC(C)(C)C)[C@H]2OC(=O)CC(C)(C)C)O[C@H](CO)[C@H]1OC(=O)CC(C)(C)C [THEX, Trehalose hexa-3,3-dimethylbutyrate]
